Test results as given in US8487006B2, “Method of enhancing TGF-β signalling” (Auxagen, Inc., priority 2008, dated 2013).

What was measured:
[1] = tested on: hypercholesterolemic ApoE-null mice; assay: Atherosclerosis in hypercholesterolemic ApoE-null mice (coronary artery histology, TβR-II staining, plasma cholesterol); type: in vivo
Protocol: Wild-type and ApoE-null mice were treated with vehicle only (a, c) or 1 mg/kg dynasore (b, d) every two days for 8 weeks. The coronary arteries were removed from the animals and subjected to histological analysis by H & E staining (A) and indirect immunofluorescent staining for TβR-II(B). The asterisk (*) indicates the location of the lumen in coronary arteries. The arrow indicates the immunofluorescent staining of TβR-II in the aortic endothelium.
(§1) We hypothesize that TGF-β enhancers such as inhibitors of clathrin-dependent endocytosis may ameliorate atherosclerosis caused by cholesterol-induced suppression of TGF-β responsiveness in vascular cells^3,12. To test our hypothesis, we treated hypercholesterolemic ApoE-null mice with dynasore (1 mg/kg body weight) via intraperitoneal administration every two days for 8 weeks. We chose dynasore for two reasons. […] At 50 μM, it enhances TGF-β-stimulated expression of PAI-1 in these cell types by ˜4-5 fold, 2) Dynasore is the only inhibitor tested which alone is capable of stimulating PAI-1 expression. […] The plasma levels of cholesterol in wild-type mice treated with either vehicle only or dynasore were 120±10 and 125±20 mg/dl, respectively.
However, no TβR-II staining was found in the aortic endothelium and smooth muscle of coronary arteries in ApoE-null mice treated with vehicle only (FIG. 4Bc).

[2] = tested on: PAI-1 expression in Chinese hamster ovary cells (CHO cells); assay: TGF-β-stimulated expression of PAI-1 in CHO cells; type: cell-based; conditions: dynasore 50 μM; CHO cells (unpublished results)
Protocol: as §1

[3] = tested on: PAI-1 expression in bovine aortic endothelial cells (BAEC cells); assay: TGF-β-stimulated expression of PAI-1 in BAEC cells; type: cell-based; conditions: dynasore 50 μM; BAEC cells (unpublished results)
Protocol: as §1

[4] = tested on: TβR-I and SARA at the plasma membrane in Mv1Lu cells; assay: Co-localization and accumulation of TβR-I and SARA, immunofluorescent microscopy; type: cell-based; conditions: 20 μM TFP, 10 mg/ml β-CD, 40 μM dynasore, 200 μM chloroquine, with 100 pM TGF-β1, 30 min
Protocol: Cells were pretreated with vehicle only or 20 μM TFP, 10 mg/ml β-CD, 40 μM dynasore (Dyn) and 200 μM chloroquine (CQ) at 37° C. for 1 h. Treated cells were then stimulated with and without 100 pM TGF-β1. After 30 min at 37° C., cells were fixed and analyzed by indirect immunofluorescent staining using antibody to TβR-I (panels 1-10) and SARA (panels 11-20), DAPI (nuclear) staining was also performed (panels 21-30). Merged staining is also shown (panels 31-40). Insets indicate the co-localization and accumulation of SARA and TβR-I at the plasma membrane.
TGF-β stimulates Smad2 phosphorylation by inducing association of TβR-I and SARA^6,7 (which serves as an anchor for Smad2), binding of Smad2 to SARA, and subsequent phosphorylation of Smad2 by TβR-I in the TβR-1-SARA-Smad2 complex. If clathrin-dependent endocytosis inhibitors enhance TGF-β-induced signaling (TGF-β-stimulated Smad2 phosphorylation) by increasing accumulation of TβR-I/TβR-II complexes at the coated pits, they should promote co-localization and accumulation of TβR-I and SARA at the plasma membrane. To test this, Mv1Lu cells were stimulated with 100 pM TGF-β1. After 30 min at 37° C., […] analyzed by immunofluorescent microscopy using antibodies to TβR-I and SARA. […] This is consistent with the previous report that TGF-β enhances TGF-β receptor internalization^16.

[5] = tested on: PAI-1 expression in Mv1Lu cells; assay: TGF-β1-stimulated expression of PAI-1 mRNA (Northern blot / real-time RT-PCR) in Mv1Lu cells; type: cell-based
Protocol: (A-G) Cells were pretreated with vehicle only or with several concentrations (as indicated) of β-CD (A,C), thioridazine (B), TFP (D), chloroquine (E), monensin (F) and MDC (G) at 37° C. for 1 h. Treated cells were then stimulated with 50 pM TGF-β1. After 2 h at 37° C., the mRNAs of PAI-1 and G3PDH (as control) in the cell lysates were analyzed by Northern blot (top) and quantified using a PhosphoImager (bottom) (A,B) or real-time RT-PCR (C to G). The TGF-β-stimulated expression of PAI-1 in cells treated with vehicle only was taken as 100% (A, B) or 1 fold (C to G) of control. […] (H) Cells were pretreated with several concentrations (as indicated) of dynasore at 37° C. for 1 h and then stimulated with 50 pM TGF-β1. After 2 h at 37° C., the mRNA of PAI-1 was quantitated by real-time RT-PCR. The relative level of PAI-1 mRNA in cells treated with TGF-β1 alone was taken as 1 (100%). Experiments were carried out in triplicate. The data shown is representative of 3 independent experiments.
The PAI-1 gene is one of the most studied genes responsive to TGF-β stimulation^4,5. The promotor region of the PAI-gene contains several Smad2/3 binding sites that have been used as the TGF-β responsive elements to enhance the expression of a reported gene^4,5. […] Cells were pretreated with vehicle only and several concentrations of β-CD, thioridazine, TFP, MDC, monensin and chloroquine at 37° C. for 1 h. Cells were then stimulated with 50 pM TGF-β1. After 2 h at 37° C., the relative levels of PAI-1 mRNA were analyzed by quantitative Northern blot analysis (FIGS. 3A and 3B) and real-time RT-PCR (FIG. 3C-3G).

[6] = dynasore 1 mg/kg every two days for 8 weeks, indirect immunofluorescent staining

## O=C(N/N=C/c1ccc(O)c(O)c1)c1cc2ccccc2cc1O [dynasore]
[1]; [6]
  TβR-II staining in the aortic endothelium of coronary arteries: appeared to restore the TβR-II staining
  TβR-II staining in the smooth muscle near the endothelium: slight staining of TβR-II was found
[1]; dynasore 1 mg/kg intraperitoneal every two days for 8 weeks
  effect on atherosclerosis: effectively ameliorates atherosclerosis
[1]; dynasore 1 mg/kg intraperitoneal every two days for 8 weeks, H & E staining
  macrophages or foam cells in the endothelium of the coronary arteries: very few macrophages or foam cells were found
[2]
  enhancement of TGF-β-stimulated expression of PAI-1: 4-5 fold
[3]
  enhancement of TGF-β-stimulated expression of PAI-1: 4-5 fold
[4]
  co-localization and accumulation of TβR-I and SARA at the plasma membrane, co-treatment with TGF-β1: promoted co-localization and accumulation of TβR-I and SARA at the plasma membrane
[5]; dynasore 25 μM without TGF-β1, real-time RT-PCR
  stimulation of PAI-1 expression by dynasore alone: to the same extent as with 50 pM TGF-β1 alone
[5]; dynasore 50 μM
  enhancement of TGF-β-stimulated expression of PAI-1: 4-5 fold
[5]; dynasore 50 μM, 50 pM TGF-β1 for 2 h, real-time RT-PCR
  enhancement of TGF-β1-stimulated PAI-1 expression: ~5 fold
